Assays:
Conditions in all cases: synthetic library passage 3, intravenous, relative to wild-type AAV9
brain [1] = test: NGS fold enrichment of synthetic library (passage 3) in C57Bl/6 mice, first cross-species screen; type: in vivo
Summary of the method: (§1)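 Fold enrichment versus wild-type AAV9 was derived by NGS of RT-PCR-amplified RNA from nervous tissue, collected e.g. 28 days after IV dosing […]. The library (passage 3) was given to two NHPs aged 2-4 years and to 6-8-week BALB/c and C57Bl/6 mice (n=3 each).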

[2] = tested on: brain, spinal cord, and DRG of the NHPs; test: NGS fold enrichment of synthetic library (passage 3) in NHPs, first cross-species screen; type: in vivo, cynomolgus macaques (Macaca fascicularis)
Summary of the method: as §1

brain [3] = test: NGS fold enrichment of synthetic library (passage 3) in BALB/c mice, first cross-species screen; type: in vivo
Summary of the method: as §1

[4] = RNA from brain of C57Bl/6 mice, NGS
[5] = RNA from spinal cord of NHPs, NGS
[6] = RNA from brain of BALB/c mice, NGS

Sequence | Fold enrichment over AAV9 in the brain of Mice (C57Bl/6) (brain [1]; RNA NGS, brain of C57Bl/6 mice) | Fold enrichment over AAV9 in the brain of NHPs ([2]; RNA NGS, brain of NHPs) | Fold enrichment over AAV9 in the spinal cord of NHPs ([2]; RNA NGS, spinal cord of NHPs) | Fold enrichment over AAV9 in the brain of Mice (BALB/c) (brain [3]; RNA NGS, brain of BALB/c mice) | Fold enrichment over AAV9 in the brain of Mice (C57Bl/6) (brain [1]; [4]) | Fold enrichment over AAV9 in the brain of NHPs ([2]; RNA from brain of NHPs, NGS) | Fold enrichment over AAV9 in the spinal cord of NHPs [2, 5] | Fold enrichment over AAV9 in the brain of Mice (BALB/c) (brain [3]; [6])
GSRSTGPSGQNQQT | 0.440 fold | 1.819 fold | 2.479 fold | 0.466 fold | – | – | – | –
GSGQNAQQAAAQQT | 0.937 fold | 1.568 fold | 4.239 fold | 0.604 fold | – | – | – | –
GSGEYSRSGQNQQT | 0.617 fold | 2.145 fold | 0.745 fold | 0.205 fold | – | – | – | –
GSGYKDTYGQNQQT | 0.717 fold | 1.091 fold | 0.854 fold | 0.448 fold | – | – | – | –
GSGLSGITMQNQQT | 0.862 fold | 1.792 fold | 14.796 fold | 0.496 fold | – | – | – | –
GRTDSHTSGQNQQT | 1.299 fold | 2.913 fold | 1.510 fold | 0.704 fold | – | – | – | –
GSGQTARNGINQQT | – | – | – | – | 1.002 fold | 1.192 fold | 2.030 fold | 0.472 fold
GSGQNQQSAREGLT | 1.221 fold | 3.111 fold | 5.632 fold | 1.104 fold | – | – | – | –
GSGIPQRSGKNQQT | 1.418 fold | 3.331 fold | 0.000 fold | 1.685 fold | – | – | – | –
GSGQHLPLLGNQQT | – | – | – | – | 0.519 fold | 1.175 fold | 1.739 fold | 0.347 fold
GPDRIGSSGQNQQT | – | – | – | – | 0.654 fold | 1.308 fold | 0.426 fold | 0.342 fold
GSGLLYHDQQNQQT | 0.405 fold | 1.565 fold | 2.760 fold | 0.107 fold | – | – | – | –
GSGKGHSAGQNQQT | 1.035 fold | 1.453 fold | 0.936 fold | 1.173 fold | – | – | – | –
GSGQRLSQGVNHQT | 0.931 fold | 1.108 fold | 3.394 fold | 1.141 fold | – | – | – | –
GSGQNQQTSTGVHS | 1.039 fold | 1.660 fold | 8.271 fold | 1.075 fold | – | – | – | –
GSGQNHRSADMQQT | 0.417 fold | 1.084 fold | 12.001 fold | 0.212 fold | – | – | – | –

Sequence | Fold enrichment over AAV9 in the brain of Mice (C57Bl/6) (brain [1]; RNA NGS, brain of C57Bl/6 mice) | Fold enrichment over AAV9 in the brain of NHPs ([2]; RNA NGS, brain of NHPs) | Fold enrichment over AAV9 in the spinal cord of NHPs ([2]; RNA NGS, spinal cord of NHPs) | Fold enrichment over AAV9 in the brain of Mice (BALB/c) (brain [3]; RNA NGS, brain of BALB/c mice) | Fold enrichment over AAV9 in the brain of Mice (C57Bl/6) (brain [1]; [4]) | Fold enrichment over AAV9 in the brain of NHPs ([2]; RNA from brain of NHPs, NGS) | Fold enrichment over AAV9 in the spinal cord of NHPs [2, 5] | Fold enrichment over AAV9 in the brain of Mice (BALB/c) (brain [3]; [6])
GSRETSLSGQNQQT | – | – | – | – | 1.364 fold | 1.373 fold | 5.193 fold | 0.203 fold
GMRTYHLSGQNQQT | 2.033 fold | 9.241 fold | 1.939 fold | 1.586 fold | – | – | – | –
GSGYTSLFLQNQQT | 0.490 fold | 2.710 fold | 0.010 fold | 1.044 fold | – | – | – | –
GSSHTQALGQNQQT | 0.882 fold | 1.784 fold | 0.143 fold | 0.874 fold | – | – | – | –
GSGQNQQTVGGKNL | – | – | – | – | 0.777 fold | 1.203 fold | 0.128 fold | 1.051 fold
GSSSPGASGQNQQT | 1.378 fold | 1.717 fold | 1.244 fold | 0.660 fold | – | – | – | –
GSGQNQQSKQQVLT | 1.428 fold | 1.019 fold | 1.494 fold | 1.256 fold | – | – | – | –
GSGQNQGTVYPNQT | – | – | – | – | 0.835 fold | 1.358 fold | 7.648 fold | 0.815 fold
GSGIPAPRLQNQQT | – | – | – | – | 0.583 fold | 1.273 fold | 4.162 fold | 0.396 fold
GSSHTLALGQNQQT | 0.851 fold | 1.441 fold | 7.071 fold | 0.406 fold | – | – | – | –
GSVSDVRAGQNQQT | 0.267 fold | 2.661 fold | 1.647 fold | 0.747 fold | – | – | – | –
GSGQALLSTGNQQT | – | – | – | – | 0.536 fold | 1.377 fold | 0.847 fold | 0.370 fold
GSGQSSYGSGNQQT | – | – | – | – | 1.161 fold | 1.257 fold | 1.686 fold | 0.456 fold
GPGSAHSSGQNQQT | 1.099 fold | 1.785 fold | 4.392 fold | 0.872 fold | – | – | – | –
GSGQNQQLKNSTST | – | – | – | – | 1.063 fold | 1.235 fold | 1.703 fold | 0.538 fold
GSGVQHSLPQNQQT | 0.440 fold | 1.639 fold | 0.764 fold | 0.387 fold | – | – | – | –

Reference: US20260250318A1, “COMPOSITIONS AND METHODS FOR CROSSING THE BLOOD BRAIN BARRIER” (VOYAGER THERAPEUTICS, INC., priority 2022, published 2026)
